The values below come from ChEMBL document CHEMBL3758174, “Discovery and Characterization of 2-Acylaminoimidazole Microsomal Prostaglandin E Synthase-1 Inhibitors” (J Med Chem, 2016).

Active and inactive are the calls of the source. The rule behind the calls is not given here.

Data set [1] in a line: Clearance in beagle dog at 2 mg/kg,po or 0.5 mg/kg, iv after 0.25 to 24 hrs by LC-MS/MS analysis. The data set is classed as ADME, organism-based, Canis lupus familiaris. The conditions noted are these: in vivo.
A short description of data set [2]: Tmax in beagle dog at 2 mg/kg,po after 0.25 to 24 hrs by LC-MS/MS analysis. Type of data set: ADME, organism-based, Canis lupus familiaris. The settings on record: in vivo.
For data set [3], the target named is T1, Prostaglandin E synthase (Homo sapiens, UniProt O14684).
T1 sequence (O14684 whole entry): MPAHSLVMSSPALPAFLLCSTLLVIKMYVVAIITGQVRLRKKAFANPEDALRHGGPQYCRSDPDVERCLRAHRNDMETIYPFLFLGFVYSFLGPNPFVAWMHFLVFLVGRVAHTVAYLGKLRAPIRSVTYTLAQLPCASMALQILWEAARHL
In words: Inhibition of human microsomal PGES1 expressed in 293E cells by LC/MS/MS analysis. Type of data set: cell-based.

Data set [4] is described as follows: Oral bioavailability in beagle dog at 2 mg/kg after 0.25 to 24 hrs by LC-MS/MS analysis. Type of data set: ADME, organism-based, Canis lupus familiaris. The settings on record: in vivo.
Data set [5] is described as follows: Volume of distribution at steady state in beagle dog at 2 mg/kg,po or 0.5 mg/kg, iv after 0.25 to 24 hrs by LC-MS/MS analysis. The conditions noted are these: in vivo, read-out: Vdss. The data set is classed as ADME, organism-based, Canis lupus familiaris.
Data set [6] has as its target T2, Prostaglandin E synthase (Homo sapiens) (UniProt O14684).
T2 sequence (whole entry): T1 sequence (O14684 whole entry)
In words: (§1) Inhibition of mPGES1 in LPS-induced human whole blood assessed as suppression of PGE2 response after 20 to 24 hrs by LC-MS/MS analysis. Type of data set: tissue-based.

For data set [7], the target named is T1, Prostaglandin E synthase. Described as §1. The data set is classed as tissue-based.
Another data set deals with CYP3A4 (Homo sapiens, UniProt P08684). In words: Time-dependent inhibition of microsomal CYP3A4 (unknown origin) using midazolam as substrate assessed as alpha-hydroxymidazolam-d4 at 10 uM pre-incubated for 12 mins before NADPH addition formation after 30 mins by LC-MS/MS analysis. The data set is classed as ADME. The settings on record: microsomes, probe midazolam.
CYP3A4, sequence (P08684 whole entry): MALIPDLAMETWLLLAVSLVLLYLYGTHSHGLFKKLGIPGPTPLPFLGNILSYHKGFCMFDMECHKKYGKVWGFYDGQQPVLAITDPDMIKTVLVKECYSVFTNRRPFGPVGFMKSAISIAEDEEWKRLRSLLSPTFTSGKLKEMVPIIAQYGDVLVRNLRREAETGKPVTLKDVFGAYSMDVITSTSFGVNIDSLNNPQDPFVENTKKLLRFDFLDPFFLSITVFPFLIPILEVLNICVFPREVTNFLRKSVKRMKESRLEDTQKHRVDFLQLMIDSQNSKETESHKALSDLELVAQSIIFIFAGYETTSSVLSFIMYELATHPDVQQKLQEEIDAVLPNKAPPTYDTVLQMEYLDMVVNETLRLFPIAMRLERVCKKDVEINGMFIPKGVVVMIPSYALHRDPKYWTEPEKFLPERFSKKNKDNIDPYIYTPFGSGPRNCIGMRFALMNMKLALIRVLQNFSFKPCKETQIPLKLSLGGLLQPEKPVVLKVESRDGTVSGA
Data set [8] has as its target T3, Cyclooxygenase (Homo sapiens) (UniProt P35354+P23219). The experiment in a line: Inhibition of COX in human whole blood assessed as decrease in TXB2 production up to 30 uM. Type of data set: tissue-based.
The target of data set [9] is T3, Cyclooxygenase (Homo sapiens). In words: Inhibition of COX in human A549 cells assessed as reduction in PGE2 production at 10 uM. The data set is classed as cell-based.
For data set [10], the target named is T1, Prostaglandin E synthase. In words: Inhibition of mPGES1 in rhIL-1beta-stimulated human A549 cells assessed as PGE2 level treated for 18 hrs after 30 mins pre-incubation with rhIL-1beta by EIA method. The data set is classed as cell-based.

T3 sequence (P23219 whole entry, looked up): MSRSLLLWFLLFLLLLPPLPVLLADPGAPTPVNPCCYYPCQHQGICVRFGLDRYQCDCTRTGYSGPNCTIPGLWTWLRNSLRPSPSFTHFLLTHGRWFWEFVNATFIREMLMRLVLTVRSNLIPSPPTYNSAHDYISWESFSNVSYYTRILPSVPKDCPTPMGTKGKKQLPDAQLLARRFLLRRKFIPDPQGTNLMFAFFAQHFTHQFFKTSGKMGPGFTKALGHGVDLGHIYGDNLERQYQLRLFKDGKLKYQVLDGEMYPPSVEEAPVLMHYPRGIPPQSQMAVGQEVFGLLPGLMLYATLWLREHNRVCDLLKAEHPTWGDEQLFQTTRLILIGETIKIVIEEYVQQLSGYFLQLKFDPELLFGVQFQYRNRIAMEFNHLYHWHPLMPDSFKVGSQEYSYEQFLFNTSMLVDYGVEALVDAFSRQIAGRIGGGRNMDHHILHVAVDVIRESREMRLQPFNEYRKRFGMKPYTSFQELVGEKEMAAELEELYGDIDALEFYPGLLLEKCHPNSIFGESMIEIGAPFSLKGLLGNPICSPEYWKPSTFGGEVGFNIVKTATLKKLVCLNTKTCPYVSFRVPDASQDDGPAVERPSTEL
T3 sequence (P35354 whole entry, looked up): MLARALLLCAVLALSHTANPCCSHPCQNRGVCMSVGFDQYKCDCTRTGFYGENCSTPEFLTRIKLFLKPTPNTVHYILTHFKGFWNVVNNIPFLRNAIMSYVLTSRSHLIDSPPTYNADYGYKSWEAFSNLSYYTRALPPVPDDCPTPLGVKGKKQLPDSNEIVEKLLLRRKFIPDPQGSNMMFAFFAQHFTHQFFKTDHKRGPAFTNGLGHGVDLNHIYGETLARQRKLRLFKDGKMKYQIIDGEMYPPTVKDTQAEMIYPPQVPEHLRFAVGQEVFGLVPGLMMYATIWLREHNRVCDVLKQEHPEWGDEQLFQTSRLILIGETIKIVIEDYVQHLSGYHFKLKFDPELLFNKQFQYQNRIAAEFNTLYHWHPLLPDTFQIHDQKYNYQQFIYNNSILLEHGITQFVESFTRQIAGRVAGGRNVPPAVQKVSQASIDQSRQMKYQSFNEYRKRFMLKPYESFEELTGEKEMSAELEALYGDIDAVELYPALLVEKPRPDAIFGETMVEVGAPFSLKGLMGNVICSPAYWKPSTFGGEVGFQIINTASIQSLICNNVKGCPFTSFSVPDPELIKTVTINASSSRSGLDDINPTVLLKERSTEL

`CC(C)C(=O)NCc1ccc(C(F)F)c(C(=O)Nc2ncc[nH]2)c1`: the clearance in data set [1] stood at 26.1 mL/min/kg. Moreover, the Tmax (as a rule, the time at which the peak concentration occurs) in data set [2] was 15 min. Besides, the concentration for half-maximal inhibition (IC50) (commonly the concentration that gives 50% inhibition) on Prostaglandin E synthase [3] turned out to be 2.46 µM; on Prostaglandin E synthase [7] it was 4.61 µM; on Prostaglandin E synthase [10], 3.15 µM. The bioavailability (as a rule, dose-corrected exposure relative to a reference, in per cent) in data set [4] amounted to 100%. In addition, the Vd in data set [5] came to 2.27 L/kg. In addition, in [6], the concentration for an effect of 80% (IC80) (commonly the concentration at which the effect reaches the 80% level) amounted to 31 µM. For the same compound, the inhibition (in general, how much of the control response was suppressed) at 0.5 h, 10 µM at CYP3A4 came to 20%. The inhibition entry in [8] and in data set [9] was “inactive” in each case.
